One assay has as its target T1, AfCYP51B-6×His (Aspergillus fumigatus, UniProt E9QY26).
T1 sequence (E9QY26 1-524): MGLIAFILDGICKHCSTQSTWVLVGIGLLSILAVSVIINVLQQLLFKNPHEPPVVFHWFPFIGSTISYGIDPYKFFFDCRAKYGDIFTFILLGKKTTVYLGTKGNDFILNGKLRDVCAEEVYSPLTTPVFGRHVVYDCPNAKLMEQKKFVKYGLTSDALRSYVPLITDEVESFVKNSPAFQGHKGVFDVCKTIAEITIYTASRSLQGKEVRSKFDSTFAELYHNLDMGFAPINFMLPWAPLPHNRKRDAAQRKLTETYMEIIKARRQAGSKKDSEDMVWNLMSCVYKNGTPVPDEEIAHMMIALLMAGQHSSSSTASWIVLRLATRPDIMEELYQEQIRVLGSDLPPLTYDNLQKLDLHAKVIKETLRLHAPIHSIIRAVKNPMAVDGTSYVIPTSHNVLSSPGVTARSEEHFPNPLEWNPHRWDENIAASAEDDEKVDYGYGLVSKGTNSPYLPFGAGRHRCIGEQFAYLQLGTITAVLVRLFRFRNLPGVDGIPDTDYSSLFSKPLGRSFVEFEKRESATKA
The experiment in a line: Type I binding of substrates (difference spectra). The settings on record: for type I binding spectrum peak / type I binding spectrum trough: AfCYP51B-6×His; for affinity of AfCYP51B for eburicol versus lanosterol: ratio of Ks values. The protocol:
(§1) The concentration of AfCYP51A and AfCYP51B, purified using Ni-NTA affinity chromatography and used for the spectrophotometric type I and type II binding assays, was calculated using an extinction co-efficient of λ417nm = 117 mM^−1 cm^−1 applied to the absolute absorption spectrum of the preparations. In addition, the amount of “active” cytochrome P450 enzyme was determined using the carbon monoxide (CO) binding spectra of these preparations.
(§2) Type I binding of substrates lanosterol and eburicol in the active site of the Ni-NTA affinity-purified AfCYP51A and AfCYP51B enzymes was assessed using the method of Warrilow et al.. Titrations of 5 μM AfCYP51-6×His protein with lanosterol or eburicol (1 to 250 μM) were measured using a Cary 300 UV–Visible Spectrophotometer (Agilent Technologies, Santa Clara, CA, USA). Substrate saturation curves were constructed by plotting the maximal ∆Apeak−trough obtained between 350 and 500 nm, allowing for a change in the reaction volume during the titration. The substrate binding constant (KS) was calculated by nonlinear regression (Levenberg–Marquardt algorithm) applied to the Michaelis–Menten equation or the Hill equation. GraphPad Prism 9.2.0 software was used to identify the best fit for the data.

The target in a further assay is AfCYP51A-6×His (Aspergillus fumigatus, UniProt Q4WNT5). The experiment in a line: Type I binding of substrates (difference spectra). Details: Full-length codon-optimised AfCYP51A-6×His and AfCYP51B-6×His were constitutively co-expressed; made in house. Conditions: AfCYP51A-6×His 5 µM, concentrations up to 300 μM. The method, then: as §1
as §2, with “Titrations of 5 μM AfCYP51-6×His protein with lanosterol or eburicol (1 to 250 μM) were measured using a Cary 300 UV–Visible Spectrophotometer (Agilent Technologies, Santa Clara, CA, USA).” left out

Where [1] appears, read: AfCYP51B-6×His 5 μM, Michaelis–Menten equation.

Where “and” joins values, the source holds several entries; their conditions need not be identical. Equal values may be shown once. Entries after “also recorded” stand apart in the source; their conditions may differ. Read-outs that look alike come from different tables or passages of the source.

Chain of AfCYP51A-6×His (Q4WNT5 whole entry): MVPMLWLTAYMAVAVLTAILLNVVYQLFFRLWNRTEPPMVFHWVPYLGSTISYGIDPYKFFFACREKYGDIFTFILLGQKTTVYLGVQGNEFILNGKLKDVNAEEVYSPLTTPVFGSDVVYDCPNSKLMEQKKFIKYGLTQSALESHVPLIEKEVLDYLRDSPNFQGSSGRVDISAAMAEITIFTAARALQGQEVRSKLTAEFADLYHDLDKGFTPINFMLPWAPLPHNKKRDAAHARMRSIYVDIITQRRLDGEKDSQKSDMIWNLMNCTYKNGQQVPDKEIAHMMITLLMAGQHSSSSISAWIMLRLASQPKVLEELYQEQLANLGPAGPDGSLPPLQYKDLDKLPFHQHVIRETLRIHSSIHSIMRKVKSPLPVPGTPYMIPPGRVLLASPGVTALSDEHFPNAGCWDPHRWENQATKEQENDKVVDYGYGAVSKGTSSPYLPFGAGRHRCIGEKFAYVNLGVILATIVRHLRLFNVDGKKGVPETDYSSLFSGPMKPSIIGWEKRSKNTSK

In the case of `C=C(CC[C@@H](C)[C@H]1CC[C@@]2(C)C3=C(CC[C@]12C)[C@@]1(C)CC[C@H](O)C(C)(C)C1CC3)C(C)C` (stereo partly shown) [Eburicol, eburicol], at AfCYP51B-6×His, the Kd was determined as 71 µM, the “type I binding spectrum peak” value is recorded as 387 nm, the “type I binding spectrum trough” value was 422 nm and the “affinity of AfCYP51B for eburicol versus lanosterol” value is reported as “at least 6 fold”. Besides, on AfCYP51B-6×His (setting [1]), the “ΔAmax (type I binding)” value stood at 0.161. Besides, the “ΔAmax (type I binding)” value on AfCYP51B-6×His (AfCYP51B-6×His 5 μM, Michaelis–Menten equation, listed as eburicol) is recorded as 0.16. Moreover, at AfCYP51A-6×His, the “type I binding response” value is “did not give the expected type I binding response; also recorded: did not give a type I binding response”.

In the case of `CC(C)=CCC[C@@H](C)[C@H]1CC[C@@]2(C)C3=C(CC[C@]12C)[C@@]1(C)CC[C@H](O)C(C)(C)[C@@H]1CC3` [Lanosterol, lanosterol], on AfCYP51B-6×His, the “type I binding spectrum peak” value was 386 nm, the “type I binding spectrum trough” value amounted to 423 nm and the “affinity of AfCYP51B for eburicol versus lanosterol” value is “approximately 6 fold”. For the same compound, the “ΔAmax (type I binding)” value at AfCYP51B-6×His (setting [1]) is 0.22 and 0.219. Moreover, the Kd on AfCYP51B-6×His (AfCYP51B-6×His 5 μM, type I binding, Michaelis–Menten equation, read-out: Ks) came out at 477 µM. At AfCYP51A-6×His, the “type I binding response” value is recorded as “did not give the expected type I binding response; also recorded: did not give a type I binding response”.
